Reference: patent publication US20030191144A1, “Compounds, compositions and methods for modulating beta-amyloid production” (Active Pass Pharmaceuticals, Inc., priority 2001, published 2003)

Tested on: Aβ40 production and/or release from SM-4 cells
Experiment: Aβ40 ELISA of culture media from SM-4 cells
Type: cell-based
Details: 10-500 μM, 16 hrs
Method: Cell Lines and Pharmacological Treatments. 293 EBNA cells (InVitrogen, Carlsbad, Calif.) stably transfected with Swedish mutant β-Amyloid Precursor Protein -695 (SM4 cells) were routinely maintained in DMEM supplemented with sodium pyruvate (1 mM) and 10% fetal bovine serum. Cells were seeded into poly-D-Lysine (SIGMA) coated 6-well plates at a density of 5-7×10^5 cells per well. Subsequently, the cells were rinsed in 1 ml of PBS and treated with 10-500 μM of pirinixic acid in serum-free/phenol red-free DMEM for 16 hours. Aβ Detection and Standardization. After the pharmacological treatment, the exposure media was collected and supplemented with 10% sample treatment buffer (40 mM sodium phosphate (pH 7.4), 40 mM triethanolamine, 0.1% Triton X-100, 200 mM NaCl, 2 mM EGTA, 0.1% Sodium azide), and assayed for either Aβ40 or Aβ42 by a calorimetric ELISA as per the manufacturer's protocol (Biosource International Inc, California). The cells were lysed in 0.1% Triton X-100 in PBS supplemented with 5 μM propridium iodide (Molecular Probes, Eugene, Oreg.) and incubated at 37° C. for 30 minutes prior to measuring fluorescence. Aβ40 and Aβ42 were standardized against propridium iodide fluorescence as a measure of total cell number. 293 EBNA cells (InVitrogen, Carlsbad, Calif.) stably transfected with Swedish mutant β-Amyloid Precursor Protein -695 (SM4 cells) were routinely maintained in DMEM supplemented with sodium pyruvate (1 mM) and 10% fetal bovine serum. […] The cells were lysed in 0.1% Triton X-100 in PBS supplemented with 5 μM propridium iodide (Molecular Probes, Eugene, Oreg.) and incubated at 37° C. for 30 minutes prior to measuring fluorescence. Aβ40 and Aβ42 were standardized against propridium iodide fluorescence as a measure of total cell number. […] The cells were lysed in 0.1% Triton X-100 in PBS supplemented with 5 μM propridium iodide (Molecular Probes, Eugene, Oreg.) and incubated at 37° C. for 30 minutes prior to measuring fluorescence. Aβ40 and Aβ42 were standardized against propridium iodide fluorescence as a measure of total cell number.

Which “change in Aβ40 production and/or release” value does the source give for `Cc1cccc(Nc2cc(Cl)nc(SCC(=O)O)n2)c1C` [pirinixic acid] here?
The value was “no significant change”.
